Laboratory results taken from patent US10792282B2, “Protein kinase C inhibitors and uses thereof” (Rigel Pharmaceuticals, Inc., priority 2013, dated 2020).
Like-named read-outs stand apart in the source and are kept apart here.

Test system: PKC mediated IL-2 production
Assay: IL-2 ELISA, human primary T cell, anti CD3+CD28+ (whole cell functional assay)
Assay type: cell-based
Description: Human primary T cells were prepared as follows. Fresh PBMC's from All Cells (Cat # PB002) were re-suspended in RPMI (RPMI-1640 with L-Glutamine; Mediatech, Inc., Herndon Va., cat. #10-040-CM) with 10% FBS and seeded into flasks and incubated at 37° C. for 2 hours to allow the monocytes to adhere. The non-adherent cells were then centrifuged and re-suspended in RPMI medium containing 40 U/ml IL2 and seeded into a flask pre-coated with 1 μg/ml aCD3 and 5 ug/ml aCD28 (Anti-Human CD3, BD Pharmingen Catalog #555336, Anti-Human CD28, Beckman Coulter Catalog # IM1376). The cells were stimulated for 3-4 days, then transferred to a fresh flask and maintained in RPMI (RPMI-1640 with L-Glutamine; Mediatech, Inc., Herndon Va., cat. #10-040-CM) with 10% FBS and 40 U/ml IL-2.
(§1) Human primary T cells (100,000 cells per well) were pre-incubated with or without test compound in RPMI-1640 with L-Glutamine and 10% FBS for 1 hour at 37° C. Cells were then stimulated by transferring them to round-bottom 96-well plates pre-coated with 1 μg/ml αCD3 and 5 μg/ml αCD28. For counter assay, cells were instead stimulated by adding 8× stock solutions of PMA and ionomycin in RPMI-1640 with L-Glutamine and 10% FBS (for final concentrations of 0.5 ng/ml PMA and 0.1 μM ionomycin, both from Calbiochem). Cells were incubated at 37° C. for 24 hours before 100 μL supernatants were harvested for quantification of IL-2 by ELISA using Human IL-2 Duoset ELISA Kit from R and D Systems, Cat. # DY202E.
Compounds 1-90 were tested in a whole cell functional assay for PKC mediated IL-2 production as follows. Human primary T cell isolation and culture: Human primary T cells were prepared as follows. Whole blood was obtained from a healthy volunteer, mixed 1:1 with PBS, layered on to Ficoll Hypaque (Amersham Pharmacia Biotech, Piscataway, N.J., Catalog #17-1440-03) in 2:1 blood/PBS:ficoll ratio and centrifuged for 30 minutes at 4° C. at 1750 rpm. The cells at the serum: ficoll interface were recovered and washed twice with 5 volumes of PBS. These freshly isolated human peripheral blood mononuclear cells were cultured in Yssel's medium containing 40 U/ml IL2 in a flask pre-coated with 1 μg/ml αCD3 and 5 μg/ml αCD28 (Anti-Human CD3, BD Pharmingen Catalog #555336, Anti-Human CD28, Beckman Coulter Catalog # IM1376). The cells were stimulated for 3-4 days, then transferred to a fresh flask and maintained in RPMI (RPMI-1640 with L-Glutamine; Mediatech, Inc., Herndon Va., cat. #10-040-CM) with 10% FBS and 40 U/ml IL-2. The primary T-cells were then washed twice with PBS to remove the IL-2.
as §1, with “Primary T cell stimulation and IL2 ELISA: Human primary” for “Human primary”, “compound in Yssel's medium for 1” for “compound in RPMI-1640 with L-Glutamine and 10% FBS for 1”, “ionomycin in Yssels (for final” for “ionomycin in RPMI-1640 with L-Glutamine and 10% FBS (for final”, “and 0.1 uM ionomycin, both” for “and 0.1 μM ionomycin, both”

[1] = IL-2 production, human primary T cells stimulated with αCD3 and αCD28, 24 hours, IL-2 by ELISA, read-out: EC50
[2] = Homo sapiens, T-cell, 24 h, IL-2 production, human primary T cells stimulated with αCD3 and αCD28, 24 hours, IL-2 by ELISA, read-out: EC50
[3] = Homo sapiens, T-cell, human primary T cells stimulated with αCD3 and αCD28, IL-2 by ELISA, read-out: EC50 (blocked IL-2 production)

EC50 [1] [µM]	EC50 [2] [µM]	EC50 [3] [µM]	Compound
< 10			Cn1nnn(-c2cc(Nc3ncc(F)c(N[C@@H]4CCN5C(CCC5(C)C)C4)n3)c(F)cc2C2CC2)c1=O (mixture of isomers) [Compound 25]
	< 0.5	< 10	Fc1cc(C2CC2)c(-n2cnnn2)cc1Nc1ncc(F)c(NC2CCN3CCCC3C2)n1 (racemic) [Compound 24, (±)-N^2-(4-cyclopropyl-2-fluoro-5-(1H-tetrazol-1-yl)phenyl)-5-fluoro-n^4-(octahydroindolizin-7-yl)pyrimidine-2,4-diamine]
	< 10	< 10	Cn1nnn(-c2cc(Nc3ncc(F)c(NC4CCN5CCCC5C4)n3)c(F)cc2C2CC2)c1=O (racemic) [Compound 27, (±)-1-(5-(5-fluoro-4-(octahydroindolizin-7-ylamino)pyrimidin-2-ylamino)-2-cyclopropyl-4-fluorophenyl)-4-methyl-1H-tetrazol-5(4H)one]
	< 0.1	< 10	Cc1nnnn1-c1cc(Nc2ncc(F)c(NC3CCN4CCCC4C3)n2)c(F)cc1C1CC1 (racemic) [Compound 28, (±)-N2-(4-cyclopropyl-2-fluoro-5-(5-methyl-1H-tetrazol-1-yl)phenyl)-5-fluoro-n^4-(octahydroindolizin-7-yl)pyrimidine-2,4-diamine]
	< 10	< 10	Cn1nnn(-c2cc(Nc3ncc(F)c(N[C@@H]4C[C@@H]5CCC(=O)N5C(C)(C)C4)n3)c(F)cc2C2CC2)c1=O (racemic) [Compound 31, 1-(5-(5-fluoro-4-(hexahydro-5,5-dimethylindolizin-3(5H)-one-7-ylamino)pyrimidin-2-ylamino)-2-cyclopropyl-4-fluorophenyl)-4-methyl-1H-tetrazol-5(4H)-one]
	< 10	< 10	Cn1nnn(-c2cc(Nc3ncc(F)c(N[C@H]4C[C@@H]5CCC(=O)N5C(C)(C)C4)n3)c(F)cc2C2CC2)c1=O (racemic) [Compound 32, 1-(5-(5-fluoro-4-(hexahydro-5,5-dimethylindolizin-3(5H)-one-7-ylamino)pyrimidin-2-ylamino)-2-cyclopropyl-4-fluorophenyl)-4-methyl-1H-tetrazol-5(4H)-one]
		< 10	CC1(C)C[C@H](Nc2nc(Nc3cc(-n4cnnn4)c(C4CC4)cc3F)ncc2F)C[C@@H]2CCCN21 (racemic) [Compound 53, (±)-N2-(4-cyclopropyl-2-fluoro-5-(1H-tetrazol-1-yl)phenyl)-5-fluoro-n^4-(octahydro-5,5-dimethylindolizin-7-yl)pyrimidine-2,4-diamine]
< 0.1			CC1(C)CC(Nc2nc(Nc3cc(-n4cnnn4)c(C4CC4)cc3F)ncc2F)CC2CCCN21 (racemic) [Compound 54, (±)-N2-(4-cyclopropyl-2-fluoro-5-(1H-tetrazol-1-yl)phenyl)-5-fluoro-n^4-(octahydro-5,5-dimethylindolizin-7-yl)pyrimidine-2,4-diamine]
< 0.5			CC1(C)CC(Nc2nc(Nc3cc(-n4cnnn4)c(C4CC4)cc3F)ncc2F)CC2CCCN21 (racemic) [Compound 55, (±)-N2-(4-cyclopropyl-2-fluoro-5-(1H-tetrazol-1-yl)phenyl)-5-fluoro-n^4-(octahydro-5,5-dimethylindolizin-7-yl)pyrimidine-2,4-diamine]
	< 10	< 10	Cn1nnn(-c2cc(Nc3ncc(F)c(NC4CCN5C(CCC5(C)C)C4)n3)c(F)cc2C2CC2)c1=O (single isomer, unassigned) [Compound 34, 1-(5-(5-fluoro-4-(octahydro-3,3-dimethylindolizin-7-ylamino)pyrimidin-2-ylamino)-2-cyclopropyl-4-fluorophenyl)-4-methyl-1H-tetrazol-5(4H)-one]
< 10			Cn1nnn(-c2cc(Nc3ncc(F)c(N[C@@H]4CCN5[C@@H](CCC5(C)C)C4)n3)c(F)cc2C2CC2)c1=O (single isomer, unassigned) [Compound 36]
< 10			Cn1nnn(-c2cc(Nc3ncc(F)c(N[C@H]4CCN5[C@@H](CCC5(C)C)C4)n3)c(F)cc2C2CC2)c1=O (single isomer, unassigned) [Compound 37]

The next lines start with the molecule.

Compound	EC50 [1] [µM]	EC50 [2] [µM]	EC50 [3] [µM]
Cn1nnn(-c2cc(Nc3ncc(F)c(NC4CC5CCCN5C(C)(C)C4)n3)ccc2OC2COC2)c1=O (racemic) [Compound 38, 1-(5-(5-fluoro-4-(octahydro-5,5-dimethylindolizin-7-ylamino)pyrimidin-2-ylamino)-2-(oxetan-3-yloxy)phenyl)-4-methyl-1H-tetrazol-5(4H)-one]	< 0.5		
Cn1nnn(-c2cc(Nc3ncc(F)c(NC4CC5CCCN5C(C)(C)C4)n3)ccc2OC2CCOCC2)c1=O (racemic) [Compound 51, 1-(5-(5-fluoro-4-(octahydro-5,5-dimethylindolizin-7-ylamino)pyrimidin-2-ylamino)-2-(tetrahydro-2H-pyran-4-oxy)phenyl)-4-methyl-1H-tetrazol-5(4H)-one]		< 0.5	< 10
CC1(C)C[C@H](Nc2nc(Nc3cc(-n4cnnn4)c(C4CC4)cc3F)ncc2C#N)C[C@@H]2CCCN21 (racemic) [Compound 56, (±)-2-(4-cyclopropyl-2-fluoro-5-(1H-tetrazol-1-yl)phenylamino)-4-(octahydro-5,5-dimethylindolizin-7-ylamino)pyrimidine-5-carbonitrile]		< 0.1	< 10
Cn1nnn(-c2cc(Nc3ncc(F)c(NC4CC5CCCN5C(C)(C)C4)n3)ccc2OC2COC2)c1=O (single isomer, unassigned) [Compound 39, 1-(5-(5-fluoro-4-(octahydro-5,5-dimethylindolizin-7-ylamino)pyrimidin-2-ylamino)-2-(oxetan-3-yloxy)phenyl)-4-methyl-1H-tetrazol-5(4H)-one]	< 0.5		< 10
CC1(C)CC(Nc2nc(Nc3ccc(OC4CCOCC4)c(C#N)c3)ncc2F)CC2CCCN21 (single isomer, unassigned) [Compound 41, 5-(5-fluoro-4-(octahydro-5,5-dimethylindolizin-7-ylamino)pyrimidin-2-ylamino)-2-(tetrahydro-2H-pyran-4-yloxy)benzonitrile]		< 0.5	< 10
CC1(C)CC(Nc2nc(Nc3ccc(O[C@@H]4CCOC4)c(C#N)c3)ncc2F)CC2CCCN21 (single isomer, unassigned) [Compound 58]	< 10		< 10
CC1(C)CC(Nc2nc(Nc3ccc(O[C@@H]4CCOC4)c(C#N)c3)ncc2F)CC2CCCN21 (single isomer, unassigned) [Compound 59]	< 0.5		
CC1(C)CC(Nc2nc(Nc3ccc(O[C@H]4CCOC4)c(C#N)c3)ncc2F)CC2CCCN21 (single isomer, unassigned) [Compound 61]		< 1	< 10
CC1(C)CC(Nc2nc(Nc3ccc(O[C@H]4CCOC4)c(C#N)c3)ncc2F)CC2CCCN21 (single isomer, unassigned) [Compound 62]	< 0.5		
CC1(C)CC(Nc2nc(Nc3ccc(OC4COC4)c(C#N)c3)ncc2F)CC2CCCN21 (single isomer, unassigned) [Compound 63, 5-(5-fluoro-4-(octahydro-5,5-dimethylindolizin-7-ylamino)pyrimidin-2-ylamino)-2-(oxetan-3-yloxy)benzonitrile]		< 0.5	< 10
